Values of other authors in paper PMC8146789, “20-Hydroxyecdysone, from Plant Extracts to Clinical Use: Therapeutic Potential for the Treatment of Neuromuscular, Cardio-Metabolic and Respiratory Diseases” (Biomedicines, 2021).
Read-outs that look alike come from different tables or passages of the source.

Experiments:
[1] = test system: myostatin gene expression in C2C12 cells; conditions: cited from earlier work
Erβ = test system: Erβ; set-up: method as in PMID 24974955; conditions: ref [54]; cited from earlier work
C2C12 myotubes = test system: C2C12 myotubes; set-up: method as in PMID 24974955; conditions: E2 1 nM; ref [54]; cited from earlier work
ERα = test system: ERα; set-up: method as in PMID 24974955; conditions: ref [54]; cited from earlier work
[2] = humans, ref [132], cited from earlier work
[3] = set-up: method as in PMID 3355591, PMID 2906596; conditions: mice, i.p., ref [123],[125], cited from earlier work
[4] = sheep, ingested; ref [132]; cited from earlier work
[5] = rat, in vivo, po; cited from earlier work
[6] = set-up: method as in PMID 5719028, PMID 30428419; conditions: ref [154],[155]; cited from earlier work
rats [7] = conditions: long-term feeding 0.2–2 g/kg/day, ref [121]; cited from earlier work
rats [8] = test system: rats; set-up: method as in ref [121] = [121]; 121. Ogawa S. Nishimoto N. Matsuda H. Pharmacology of ecdysones un vertebrates Invertebrate Endocrinology and Hormonal Heterophylly Burdette W.J. Springer Berlin, Germany 1974 341 344; conditions: ref [121]; cited from earlier work
mice = conditions: ref Ogawa et al. [121], cited from earlier work

C[C@]12CC[C@@H]3c4ccc(O)cc4CC[C@H]3[C@@H]1CC[C@H]2O [17αE2, 17-epi-estradiol]
myostatin gene expression ([1]; C2C12 cells, ref [113]): inhibit myostatin gene expression in C2C12 cells

C[C@]12CC[C@@H]3c4ccc(O)cc4CC[C@H]3[C@@H]1CC[C@@H]2O [E2, Estradiol, reference compound]
activation of ERE reporter gene (Erβ): could be activated dose dependently
myostatin gene expression ([1]; C2C12 cells, ref [113]): inhibit myostatin gene expression in a dose-dependent manner
myotube diameter (C2C12 myotubes): enhanced myotube diameter
activation of ERE reporter gene (ERα): could be activated dose dependently

C[C@]12CC[C@@H]3c4ccc(O)cc4C(=NOCC(=O)O)C[C@H]3[C@@H]1CC[C@@H]2O [E2-CMO, estradiol 6-carboxymethyloxime]
myostatin gene expression ([1]; C2C12 cells, ref [113]): inhibit myostatin gene expression in C2C12 cells like E2

C[C@H]([C@H](O)CCC(C)(C)O)[C@H]1CC[C@@]2(O)C3=CC(=O)[C@@H]4C[C@@H](O)[C@@H](O)C[C@]4(C)[C@H]3CC[C@]12C [E, ecdysone]
time of plasma titre maximum ([2]; ingested): ca. 30 min
effective half-time of elimination from the blood [2]: 4 h
effective half-time of elimination from the urine [2]: 3.1 h
time to full excretion of radioactivity ([3]; undiluted radiolabelled ecdysone): ≤ 24 h
time until essentially all radioactivity is located in the intestine [3]: 45 to 60 min
time of plasma titre maximum [4]: ca. 30 min

CC(=O)[C@H]1CC[C@@]2(O)C3=CC(=O)[C@@H]4C[C@@H](O)[C@@H](O)C[C@]4(C)C3CC[C@]12C (stereo partly shown) [Post, poststerone]
bioavailability [5]: ca. 19%
anabolic activity [6]: seem to retain some anabolic activity

CC(CO)CC[C@@H](O)[C@](C)(O)[C@H]1CC[C@@]2(O)C3=CC(=O)[C@@H]4C[C@@H](O)[C@@H](O)C[C@]4(C)[C@H]3CC[C@]12C (stereo partly shown) [inokosterone]
subacute toxicity (rats [7]): no subacute toxicity was observed
sex hormonal activity, anti-inflammatory or anabolic effects (rats [8]): did not have
LD50 (mice; i.p.-injected): 7800 mg/kg
LD50 (mice; ingested): > 9000 mg/kg

C[C@]12C[C@H](O)[C@H](O)C[C@H]1C(=O)C=C1[C@@H]2CC[C@]2(C)C(=O)CC[C@@]12O [rubrosterone]
anabolic activity [6]: seem to retain some anabolic activity

Angiotensin(1-7): natural ligand for the GPCR Mas1 (DRVYIHP; Angiotensin 1-7; UniProt P01019 25-31, looked up)
myostatin gene expression ([1]; C2C12 cells, ref [113]): partially inhibits myostatin gene expression

D-Ala^7-Ang(1-7)
effect on the inhibition of myostatin gene expression by 20E ([1]; C2C12 cells, ref [113]): effective at preventing the inhibition brought about by 20E
effect on the inhibition of myostatin gene expression by Ang(1-7) ([1]; C2C12 cells, ref [113]): abolished

D-Pro^7-Ang(1-7)
effect on the inhibition of myostatin gene expression by 20E ([1]; C2C12 cells, ref [113]): effective at preventing the inhibition brought about by 20E
effect on the inhibition of myostatin gene expression by Ang(1-7) ([1]; C2C12 cells, ref [113]): abolished

IGF-1: insulin-like growth factor-1
myostatin gene expression ([1]; C2C12 myotubes, 6 h treatment, ref [103]): markedly reduces myostatin gene expression
